The subject of one assay is C. auris. Nature of the assay: In vitro susceptibility testing according to CLSI M27-A3 (MIC). It counts as cell-based, Candida auris. As to conditions: for MIC50 / MIC90 / MIC: Candidozyma auris; for MIC50: lowest concentration that inhibited 50% of the isolates tested; for MIC90: lowest concentration that inhibited 90% of the isolates tested. The procedure: In vitro susceptibility testing was performed according to the CLSI M27-A3 standard, the contents of which are herein incorporated by reference, against 10 isolates available from the U.S. Food and Drug Administration Center for Disease Control Antibiotic Resistance (FDA CDC AR) Isolate Bank and 13 clinical isolates that were received for testing by the Fungus Testing Laboratory at University of Texas Health Science Center at San Antonio (UTHSCSA).
In vitro activity of T-2307, fluconazole, and caspofungin against C. auris. […] MIC50 and MIC90 are lowest concentrations that inhibited 50% and 90%, respectively, of the isolates tested. GM MIC is geometric mean MIC.

The test system of the next assay is C. auris (DI 17-46). Nature of the assay: Neutropenic mice with invasive candidiasis secondary to C. auris (survival arm and fungal burden arm). It counts as in vivo. As to conditions: for percent survival: day 21, control 0%; for kidney fungal burden (mean): control 7.09; for kidney fungal burden: control 8.04. How it is done: FIG. 1 depicts survival curves in mice inoculated intravenously with C. auris and treated with vehicle control, fluconazole 20 mg/kg PO QD, or caspofungin 10 mg/kg IP QD (A) or T-2307 at doses of 0.75 mg/kg, 1.5 mg/kg, or 3 mg/kg SC QD (B). Treatment started one day post-inoculation and continued for 7 days. Mice were then followed off therapy until day 21 post-inoculation (14 days after therapy stopped). Black square—vehicle control; white circle—fluconazole 20 mg/kg; black circle—caspofungin 10 mg/kg; inverted gray triangle T-2307 0.75 mg/kg; gray rectangle—T-2307 1.5 mg/kg; gray triangle—T-2307 3 mg/kg. N=10 mice per group.
FIG. 2 depicts graphs showing kidney (A) and brain (B) fungal burden (CFU/g) in mice with invasive candidiasis secondary to C. auris in the fungal burden arm. Colony-forming units were measured on day 8 post-inoculation after 7 days of therapy. N=10 mice in the vehicle control and treatment groups; N=5 mice in the 24-hour control group.
FIG. 3 depicts graphs showing kidney (A) and brain (B) fungal burden (CFU/g) in mice with invasive candidiasis secondary to C. auris in the survival arm. Colony-forming units were measured […]. N=10 mice in the vehicle control and treatment groups; N=5 mice in the 24-hour control group. Black circles represent mice that succumbed to infection prior to day 21; gray circles represent mice that survived to the survival endpoint.
Male Institute of Cancer Research (ICR) mice were rendered neutropenic with a single dose of 5-fluorouracil (5 mg/mouse) administered 24 hours prior to inoculation, and a clinical isolate of C. auris (DI 17-46) was used to infect mice via the lateral tail vein as previously described (Wiederhold et al. 2019. Antimicrob Agents Chemother. 63:e02233-18, the entire contents of which is herein incorporated by reference). Treatment with vehicle control, T-2307 (0.75, 1.5, or 3 mg/kg subcutaneously (SC) once daily), fluconazole (20 mg/kg per orally (PO) once daily), or caspofungin (10 mg/kg intraperitoneally (IP) once daily) began 1-day post-inoculation and continued for 7 days. In the fungal burden arm, mice were humanely euthanized on day 8 post-inoculation, and kidneys and brains were collected, weighed, and homogenized for analysis of colony-forming units (CFU/g). In the survival arm, mice were followed off therapy for 14 days, until day 21 post-inoculation. Fungal burden was also assessed in the survival arm on day 21 or on the day the mice succumbed to infection. Differences in survival were assessed by Kaplan-Meier analysis with the log-rank test. ANOVA with Tukey's post-test for multiple comparisons were used to assess for differences in fungal burden and geometric mean (GM) MIC values.

Where [1] appears, read: 50% inhibition endpoint, read-out: GM MIC (geometric mean MIC).
Where [2] appears, read: infecting clinical isolate of C. auris (DI 17-46), read-out: MIC against the infecting isolate.

Broadly, the MIC50 is an inhibitory concentration at the 50% level, which refers to growth in some studies and to a panel of isolates in others. Read a high MIC50 as weaker potency. What is called MIC90 is the lowest concentration that inhibits either 90% of growth or 90% of the strains tested, depending on the study. A high value points to weaker potency. What is called MIC is the lowest concentration found to suppress growth.

Structures are written as SMILES. In brackets after ≈: the same amount, converted by molar mass. Like-named read-outs stand apart in the source and are kept apart here.

`CC[C@H](C)C[C@H](C)CCCCCCCCC(=O)N[C@H]1C[C@@H](O)[C@@H](NCCN)NC(=O)[C@@H]2[C@@H](O)CCN2C(=O)[C@H]([C@H](O)CCN)NC(=O)[C@H]([C@H](O)[C@@H](O)c2ccc(O)cc2)NC(=O)[C@@H]2C[C@@H](O)CN2C(=O)[C@H]([C@@H](C)O)NC1=O` [Caspofungin, caspofungin]: the MIC50 against C. auris (50% inhibition endpoint) worked out at 0.25 µg/mL (≈ 0.229 µM). The same compound registered an MIC90 with C. auris (50% inhibition endpoint) of 0.5 µg/mL (≈ 0.457 µM). The values for the MIC in the assay on C. auris (setting [1]) and with C. auris (setting [2]) were 0.24 µg/mL (≈ 0.22 µM) and 0.25 µg/mL (≈ 0.229 µM), respectively. The percent survival in the assay on C. auris (DI 17-46) (caspofungin 10 mg/kg IP once daily for 7 days) worked out at 100%. Besides, the brain fungal burden is 4.45 log10 CFU/g in the assay on C. auris (DI 17-46) (fungal burden arm, day 8 post-inoculation, caspofungin 10 mg/kg IP, control 5.88) and 2.51 log10 CFU/g with C. auris (DI 17-46) (survival arm, day 21 or day mice succumbed, caspofungin 10 mg/kg IP, control 6.31). Also, the “kidney fungal burden (mean)” value in the assay with C. auris (DI 17-46) (fungal burden arm, day 8 post-inoculation, caspofungin 10 mg/kg IP) was found to be 3.21 log10 CFU/g. Also, the kidney fungal burden in the assay on C. auris (DI 17-46) (survival arm, day 21 or day mice succumbed, caspofungin 10 mg/kg IP) was 3.11 log10 CFU/g.
Regarding `N=C(N)c1ccc(OCCCC2CCN(CCCOc3ccc(C(=N)N)cc3)CC2)cc1` [T-2307, 4-{3-[4-(3-{4-[amino(imino)methyl]phenoxy}propyl)-1-piperidinyl]propoxy}benzamidine], in the assay with C. auris (50% inhibition endpoint, 23 C. auris isolates, 24 hours at 35° C.), the “MIC Range” value is not above 0.008 to 0.015 µg/mL. Besides, the figures for the MIC50 against C. auris (50% inhibition endpoint) and in the assay on C. auris (100% inhibition endpoint) were 0.015 µg/mL (≈ 0.0343 µM) and more than 4 µg/mL, respectively. The MIC90 was 0.015 µg/mL (≈ 0.0343 µM) against C. auris (50% inhibition endpoint) and more than 4 µg/mL in the assay on C. auris (100% inhibition endpoint). For the same compound, the MIC in the assay on C. auris (setting [1]) was 0.011 µg/mL (≈ 0.0251 µM); with C. auris (100% inhibition endpoint, read-out: GM MIC (geometric mean MIC)), 2.19 µg/mL (≈ 5 µM); in the assay on C. auris (setting [2]) it was less than 0.008 µg/mL. The compound also returned a percent survival in the assay with C. auris (DI 17-46) (T-2307 3 mg/kg SC once daily for 7 days) of 70%. The “kidney fungal burden (mean)” value in the assay with C. auris (DI 17-46) (fungal burden arm, day 8 post-inoculation, T-2307 3 mg/kg SC) stood at 5.06 log10 CFU/g. The “nature of activity (kidney fungal burden vs 24-hour group before start of therapy)” value with C. auris (DI 17-46) (fungal burden arm, T-2307 3 mg/kg SC) was “static in nature”. Besides, the “improvement in survival vs control” value in the assay with C. auris (DI 17-46) (lower doses of T-2307 (0.75, 1.5 mg/kg SC once daily)) is listed as “did not improve survival”. Besides, in the assay with C. auris (DI 17-46) (survival arm, day 21 or day mice succumbed, T-2307 3 mg/kg SC, control 6.31), the brain fungal burden was 4.16 log10 CFU/g. The compound further registered a kidney fungal burden in the assay with C. auris (DI 17-46) (survival arm, day 21 or day mice succumbed, T-2307 3 mg/kg SC) of 6.28 log10 CFU/g.
In the assay with C. auris (50% inhibition endpoint), `OC(Cn1cncn1)(Cn1cncn1)c1ccc(F)cc1F` [Fluconazole, fluconazole] had an MIC50 of 4 µg/mL (≈ 13.1 µM). Also, in the assay with C. auris (50% inhibition endpoint), the MIC90 is more than 64 µg/mL. In addition, the results for the MIC with C. auris (setting [1]) and in the assay with C. auris (setting [2]) were 14.6 µg/mL (≈ 47.7 µM) and more than 64 µg/mL, respectively. Moreover, the “improvement in survival vs control” value with C. auris (DI 17-46) (fluconazole 20 mg/kg PO once daily) is “did not improve survival”.
